Measured values reported in patent US20040071656A1, “Modulation of heat-shock-protein-based immunotherapies” (priority 2001, published 2004).
No end group written: not given here. *: point of attachment. FITC = O=C1OC2(c3ccc(O)cc3Oc3cc(O)ccc32)c2ccc(NC(=S)*)cc21

Key:
[1] = molecular target: T1, exoplasmic domain of human CD40 (GST-CD40) (Homo sapiens, UniProt P25942); test: GST-CD40 binding and competition assay with recombinant Hsp70 and its domains
T1 construct: The cDNA for the exoplasmic domain of CD40 (amino acids 20-212); made in house; host or cells: E. coli, pGEX-2T
T1 sequence (P25942 20-212): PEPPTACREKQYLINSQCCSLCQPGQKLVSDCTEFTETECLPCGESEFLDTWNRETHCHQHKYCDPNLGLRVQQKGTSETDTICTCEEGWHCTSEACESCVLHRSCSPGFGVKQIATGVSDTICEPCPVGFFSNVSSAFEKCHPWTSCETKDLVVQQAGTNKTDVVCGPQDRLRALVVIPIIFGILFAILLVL
Description: For binding assays with recombinant Hsp70 and its domains, 3 μM His6-Hsp70 or its His6-tagged domains were incubated with 2 mM ATP, 2 mM ADP or 2 mM ADP and 28 μM peptide C in 50 μl binding buffer (10 mM MOPS/KOH, pH 7.2, 150 mM KCl and 3 mM MgCl2) for 30 min at 37° C. In competition experiments binding was probed with either a 10-fold excess of Hsp70, the two domains, or DnaK, or with a 5-fold excess of Hip or Bag 1 for 10 min at 0° C. To this end, Hsp70, N70, C70 and DnaK were preincubated with ADP, ATP and peptide C as described above. For comparison of CD40 binding of Hsp70 and its N-terminal domain, Hsp70 was preincubated in the presence or absence (mock treatment) of a 30-fold molar excess of peptide C. 3 μM of GST or GST-CD40 was added to the samples and incubated for 20 min at 16° C. For titration of peptide C, 5- to 50-fold excess of peptide C (15-150 μM) was added to the preincubation of Hsp70. Thereafter the samples were combined with 20 μl of 1% BSA-treated Glutathione Sepharose 4 Fast Flow and incubated in the presence of 2 mM DTT for another 20 min at 16° C. Unbound proteins were removed by washing the beads three times with 1 ml PBS, and immobilized proteins eluted with 30 μl elution buffer for 20 min at 22° C. 10 μl of the eluates were subjected to SDS-PAGE and analyzed by immunoblotting using a Penta-His-antibody (Quiagen). Blot signals were quantified by Quantity One (Biorad).
Details for FIG. 3. Binding of Hsp70 to CD40 is direct and depends on ADP. A. Hela-cell lysates were incubated with GST (control), or GST-CD40 in the amounts indicated. Thereafter samples were affinity purified on glutathione-Sepharose as outlined in Experimental Procedures, subjected to SDS-PAGE and analyzed by immunoblotting with antibodies directed against Hsc70 and Hsp70 (upper lanes), and against Hsp90 (lower lanes). B. Human recombinant His6-tagged Hsp70 was incubated with ATP, ADP, or an excess of peptide C, followed by addition of GST-CD40 or GST alone. After affinity purification samples were analyzed by immunoblotting as described in A, using antibodies directed against the His6-tag. C. Recombinant human His6-tagged Hsp70 was incubated with peptide C, either in the presence or absence of ADP. The reactions were then incubated with ANA1-cell lysates as described in Experimental Procedures. Protein bound to Hsp70 was analyzed by affinity purification on Ni-NTA-agarose and immunoblotting with antibodies directed against CD40.
Details for FIG. 4. Hsp70 binding to CD40 is mediated by the N-terminal ATPase domain and is competed by Hip. A. Human His6-tagged Hsp70, its N- or C-terminal domains, or recombinant bacterial DnaK was incubated either with GST-CD40, or with GST. B. Recombinant DnaK was incubated with ATP, ADP, or an excess of peptide C, followed by addition of GST-CD40 or GST alone. C. His6-tagged N-terminal domain of Hsp70 (N70) was incubated in the presence of ATP or ADP, followed by incubation with a 10-fold molar excess of Hsp70 in the presence of ADP or ATP. D: Recombinant human His6-tagged Hsp70 protein was incubated with a 5-fold molar excess of either recombinant Hip protein or Bag-1, and with GST-CD40 or GST as a control. Bound protein was analyzed after affinity purification on glutathione-Sepharose by immunoblotting with an antibody directed against the N-terminal His6-tags or with an antibody directed against DnaK.
Details for FIG. 5. Peptide substrate stimulates Hsp70 binding to CD40. A. His6-tagged Hsp70 was incubated with increasing concentrations of peptide C as indicated in the Figure, and binding to GST-CD40 analyzed by immunoblotting with antibodies directed against the His6-tag. The lower panel is a quantitation of the data. B. Equivalent concentrations (3 μM) of His6-tagged Hsp70 (in the presence of a 30-fold molar excess of peptide C) or His6-tagged N70 was incubated with GST-CD40, and bound protein was analyzed as described above.

human CD40 [2] = molecular target: T2, human CD40 (Homo sapiens, UniProt P25942); test: Uptake of peptide C-FITC in HEK293T-CD40 cells, confocal microscopy; assay type: cell-based; details: 0.5 μM protein, 5 μM peptide C-FITC, ADP, 30 min 0° C. then 15 min 37° C.
T2 construct: CD40 full-length cDNA was cloned by PCR; expressed in transfected cells
T2 sequence (P25942 21-277): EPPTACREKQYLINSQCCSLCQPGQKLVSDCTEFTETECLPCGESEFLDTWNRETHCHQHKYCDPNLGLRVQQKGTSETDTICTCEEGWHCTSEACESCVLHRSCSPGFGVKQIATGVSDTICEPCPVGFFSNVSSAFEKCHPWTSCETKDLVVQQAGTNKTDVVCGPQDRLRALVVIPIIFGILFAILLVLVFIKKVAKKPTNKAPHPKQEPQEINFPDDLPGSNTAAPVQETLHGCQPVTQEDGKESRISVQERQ
Description: For experiments to study uptake of Hsp70/peptide C-FITC complex, HEK293T-CD40 and HEK293T-MCAT cells were seeded on collagen-coated cover slips 24 h prior to the experiment. For complex formation Hsp70, its N-terminal domain (N70) or its C-terminal domain (C70) were preincubated with a 10-fold molar excess of peptide C-FITC for 30 min at 37° C., as described above for the biotinylated proteins. HEK293T-CD40 and HEK293T-MCAT were incubated with 0.5 μM of Hsp70, N70 or C70, preincubated with 2 mM ADP and 5 μM peptide C-FITC, or 5 μM peptide C-FITC alone for 30 min on ice. Thereafter the cells were washed three times with medium, incubated for 15 min at 37° C., and fixed, embedded in Fluoromount-G and analyzed by confocal microscopy (LSM 510, Zeiss).
Next, the binding of Hsp70-peptide complex to CD40 was studied, which results in the uptake of peptide. To this end, HEK293T-CD40 cells and HE293T-MCAT cells (not expressing CD40) were incubated with a fluorescent (FITC) derivative of peptide C for 30 min at 0° C. in the presence of ADP, with or without Hsp70 or its two domains. After removal of excess material, the cells were incubated at 37° C. for 15 min, fixed and then analyzed by fluorescence microscopy. […] (FIG. 6B, panel 1). […] Neither did HEK293T-MCAT control cells give rise to a signal under any of the conditions tested (not shown). We conclude that the specific interaction of CD40 with Hsp70-peptide complex mediates the uptake of peptide.
Details for FIG. 6. Binding of Hsp70 complex to CD40-expressing HEK293T cells induces signaling via p38 and causes peptide uptake. A. HEK293T-cells, stably transfected with cDNA encoding human CD40 or the unrelated membrane protein murine cationic amino acid transporter (MCAT) were incubated for 20 min at 37° C. with CD40L or with Hsp70, C70, N70, bacterial DnaK either in the presence of ADP or AMPPNP, or buffer alone. Thereafter cells were washed, solubilized in SDS-sample buffer, and analyzed by immunoblotting with antibodies directed against phosphorylated (active) p38. Blots were also developed with an antibody against tubulin in order to control for equal loading. B. Cells were incubated at 0° C. for 30 min with recombinant human Hsp70, N70, or C70, all in the presence FITC-labeled peptide, or with the FITC-labeled peptide alone. Thereafter cells were washed, incubated for 15 min at 37° C., and processed for fluorescence microscopy. Upper left panel: Hsp70, upper right panel: FITC-labeled peptide alone, lower left panel: C70, lower right panel: N70. Only cells stably transfected with CD40 are shown. Cell boundaries are emphasized with broken lines.

[3] = molecular target: T1, exoplasmic domain of human CD40 (GST-CD40); test: GST-CD40 pull-down of endogenous heat shock proteins from Hela cell lysate; assay type: binding; details: 80 or 400 pmol GST-CD40, immunoblot
Description: Binding assays with GST-CD40. For binding of endogenous Hsp70 and Hsc70 from Hela cell lysate, Hela cells were lysed as described above and centrifuged at 100,000 g at 4° C. for 1 h. 20 μl bed volume of Glutathione Sepharose 4 Fast Flow (Amersham Pharmacia) per sample were preincubated with 80 pmol or 400 pmol of GST or GST-CD40 fusion protein in 50 μl binding buffer. Unbound protein was removed by washing three times with PBS. The beads were treated with 1% BSA/PBS to avoid non-specific binding, and than incubated with 150 μl of Hela cell lysate in the presence of 2 mM DTT for 20 min at 16° C. […] 10 μl of the eluates was subjected to SDS-PAGE and analyzed by immunoblotting using an anti-Hsc/Hsp70 antibody and an anti-Hsp90: antibody (SPA822 and SPA835, Stressgen). […]
Details for FIG. 3. […] Thereafter samples were affinity purified on glutathione-Sepharose as outlined in Experimental Procedures, subjected to SDS-PAGE and analyzed by immunoblotting with antibodies directed against Hsc70 and Hsp70 (upper lanes), and against Hsp90 (lower lanes). […] After affinity purification samples were analyzed by immunoblotting as described in A, using antibodies directed against the His6-tag. […] Protein bound to Hsp70 was analyzed by affinity purification on Ni-NTA-agarose and immunoblotting with antibodies directed against CD40.

human CD40 [4] = molecular target: T2, human CD40; test: Binding to Cos-7 cells transiently transfected with human CD40 cDNA, fluorescence microscopy; assay type: cell-based; details: 250 nM biotinylated protein, 30 min at 0° C.
Description: Cell culture and fluorescence microscopy. The murine macrophage cell line ANA1 was kindly provided by H. Wagner (Munich, Germany). ANA-1 cells were cultured in VLE-RPMI 1640 (Biochrom), supplemented with 10% FCS, 2 mM L-glutamine and antibiotics. For fluorescence microscopy, ANA1 cells were either stimulated with LPS (20 μg/ml, Sigma, Germany), or kept in an LPS-free medium (mock treatment) for 7 h. After stimulation, cells were harvested and incubated with 100 nM biotinylated Hsp70, biotinylated GST, or Hsp70/peptide C-biotin complex for 30 min at 0° C. in VLE-RPMI 1640. After incubation cells were processed for staining with streptavidin-TRITC (Sigma, Germany), fixed with paraformaldehyde and analyzed by fluorescence microscopy (Axiovert 35, Zeiss) as described (Sondermann et al., 2000). […] Twenty-four h post-transfection cells were incubated with 250 nM biotinylated Hsp70, biotinylated GST or Hsp70/peptide C-biotin complex for 30 min at 0° C. in DMEM, fixed, stained with streptavidin-TRITC (Sigma, Germany), and analyzed by fluorescence microscopy as described (Sondermann et al., 2000, idem). […] Stably transfected cell lines were analyzed by immunoblotting for CD40 expression using an anti-CD40 antibody (CSA180, Stressgen). […]
Mock-treated and LPS-stimulated ANA-1 cells were analyzed for their expression of CD40. […]

Hsp70 = details: Greene et al., 1995; read-out: affinity of peptide C for Hsp70; cited from earlier work

## C70: Recombinant C-terminal peptide-binding domain of human Hsp70, residues 382-641
[1]; ADP, 5-fold molar excess of competitor
  competition for the binding of full-length Hsp70 to CD40: neither the C-terminal Hsp70 domain (C70) nor DnaK had a significant effect on binding
Human CD40 [2]
  uptake of fluorescent (FITC) peptide C into HEK293T-CD40 cells: did not result in a peptide signal above background

## Hsc70: Endogenous mammalian Hsp70 family member in Hela-cell lysates
[3]
  binding to GST-CD40 from Hela-cell lysates: bound to GST-CD40 in a concentration dependent manner

## GCEVFGLGWRSYKH [peptide C, reference compound]
[1]; 5- to 50-fold excess of peptide C (15-150 μM), ADP
  effect of peptide C on binding of Hsp70-ADP to CD40: increased dramatically
[1]; 10-fold molar excess of peptide C
  effect of peptide C on binding of DnaK to CD40: almost completely abolishes the binding of DnaK to CD40
[1]; molar excess of peptide C over Hsp70, ADP
  competition of peptide C with the Hsp70-CD40 interaction: did not compete with the interaction
[1]; titration of peptide C, 3 μM Hsp70, ADP
  ka of the saturable effect of peptide on Hsp70-ADP binding to CD40: ~30 µM
Human CD40 [4]
  binding to CD40-transfected Cos-7 cells: no binding above background
Hsp70
  Kd: 5 to 10 µM

## FITC-GCEVFGLGWRSYKH ({FITC}-GCEVFGLGWRSYKH) [reference compound]
Human CD40 [2]
  uptake of fluorescent (FITC) peptide C into HEK293T-CD40 cells: No staining above background
